Test results reported in PubChem BioAssay (NCI).
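Growth conditions: 96-well plates. Treatment: test compound, 48 hours, 5 concentrations. Analysis: linear interpolation between bracketing concentrations; unreached endpoints set to highest concentration. GI50 is the concentration that inhibits growth by half. Definition used: TGI = concentration required for complete inhibition of growth.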

What was measured:
Assay in all cases: NCI-60 cell line screen, 48 h
OVCAR-3 ovarian = system: OVCAR-3 ovarian
A498 renal = system: A498 renal
SF-539 CNS = system: SF-539 CNS
HT29 colon = system: HT29 colon
SNB-19 CNS = system: SNB-19 CNS
IGROV1 ovarian = system: IGROV1 ovarian
HS 578T breast = system: HS 578T breast
CAKI-1 renal = system: CAKI-1 renal
HOP-62 NSCLC = system: HOP-62 NSCLC
M14 melanoma = system: M14 melanoma
RXF 393 renal = system: RXF 393 renal
EKVX NSCLC = system: EKVX NSCLC
HCT-116 colon = system: HCT-116 colon
NCI/ADR-RES ovarian = system: NCI/ADR-RES ovarian
SF-268 CNS = system: SF-268 CNS
MDA-MB-435 = system: MDA-MB-435
ACHN renal = system: ACHN renal
OVCAR-8 ovarian = system: OVCAR-8 ovarian
UACC-257 melanoma = system: UACC-257 melanoma
SW-620 colon = system: SW-620 colon
UO-31 renal = system: UO-31 renal
TK-10 renal = system: TK-10 renal
MALME-3M melanoma = system: MALME-3M melanoma
HOP-92 NSCLC = system: HOP-92 NSCLC
SK-OV-3 ovarian = system: SK-OV-3 ovarian
MCF7 breast = system: MCF7 breast
SF-295 CNS = system: SF-295 CNS
SNB-75 CNS = system: SNB-75 CNS
SN12C renal = system: SN12C renal
U251 CNS = system: U251 CNS
SK-MEL-28 melanoma = system: SK-MEL-28 melanoma
HL-60(TB) leukemia = system: HL-60(TB) leukemia
UACC-62 melanoma = system: UACC-62 melanoma
BT-549 breast = system: BT-549 breast
COLO 205 colon = system: COLO 205 colon
SK-MEL-2 melanoma = system: SK-MEL-2 melanoma
K-562 leukemia = system: K-562 leukemia
NCI-H460 lung = system: NCI-H460 lung
OVCAR-4 ovarian = system: OVCAR-4 ovarian
CCRF-CEM leukemia = system: CCRF-CEM leukemia
DU-145 prostate = system: DU-145 prostate
NCI-H522 lung = system: NCI-H522 lung
LOX IMVI melanoma = system: LOX IMVI melanoma
OVCAR-5 ovarian = system: OVCAR-5 ovarian
PC-3 prostate = system: PC-3 prostate
SK-MEL-5 melanoma = system: SK-MEL-5 melanoma
786-0 renal = system: 786-0 renal
RPMI-8226 leukemia = system: RPMI-8226 leukemia
A549 NSCLC = system: A549 NSCLC
NCI-H226 lung = system: NCI-H226 lung

Cc1nc(Nc2ccc(F)c(Cl)c2)sc1C(=O)O
GI50 (OVCAR-3 ovarian): 1.82 µM | TGI (OVCAR-3 ovarian): 4.47 µM | GI50 (A498 renal): 1.64 µM | TGI (A498 renal): 4.16 µM | GI50 (SF-539 CNS): 1.58 µM | TGI (SF-539 CNS): 3.07 µM | GI50 (HT29 colon): 1.67 µM | TGI (HT29 colon): 3.44 µM | GI50 (SNB-19 CNS): 1.93 µM | TGI (SNB-19 CNS): 5.22 µM | GI50 (IGROV1 ovarian): 1.63 µM | TGI (IGROV1 ovarian): 5.03 µM | GI50 (HS 578T breast): 1.87 µM | TGI (HS 578T breast): 5.44 µM | GI50 (CAKI-1 renal): 1.9 µM | TGI (CAKI-1 renal): 7.34 µM | GI50 (HOP-62 NSCLC): 1.42 µM | TGI (HOP-62 NSCLC): 2.93 µM | GI50 (M14 melanoma): 1.73 µM | TGI (M14 melanoma): 3.66 µM | GI50 (RXF 393 renal): 1.71 µM | TGI (RXF 393 renal): 3.94 µM | GI50 (EKVX NSCLC): 0.865 µM | TGI (EKVX NSCLC): 5.76 µM | GI50 (HCT-116 colon): 1.51 µM | TGI (HCT-116 colon): 3.34 µM | GI50 (NCI/ADR-RES ovarian): 1.78 µM | TGI (NCI/ADR-RES ovarian): 4.7 µM | GI50 (SF-268 CNS): 1.76 µM | TGI (SF-268 CNS): 4.36 µM | GI50 (MDA-MB-435): 2.13 µM | TGI (MDA-MB-435): 5.25 µM | GI50 (ACHN renal): 1.52 µM | TGI (ACHN renal): 3.24 µM | GI50 (OVCAR-8 ovarian): 2.14 µM | TGI (OVCAR-8 ovarian): 4.82 µM | GI50 (UACC-257 melanoma): 1.78 µM | TGI (UACC-257 melanoma): 3.36 µM | GI50 (SW-620 colon): 2.32 µM | TGI (SW-620 colon): 6.31 µM | GI50 (UO-31 renal): 1.16 µM | TGI (UO-31 renal): 2.82 µM | GI50 (TK-10 renal): 1.96 µM | TGI (TK-10 renal): 4.09 µM | GI50 (MALME-3M melanoma): 1.65 µM | TGI (MALME-3M melanoma): 3.71 µM | GI50 (HOP-92 NSCLC): 0.877 µM | TGI (HOP-92 NSCLC): 2.74 µM | GI50 (SK-OV-3 ovarian): 1.83 µM | TGI (SK-OV-3 ovarian): 4.33 µM | GI50 (MCF7 breast): 1.53 µM | TGI (MCF7 breast): 8.18 µM | GI50 (SF-295 CNS): 1.49 µM | TGI (SF-295 CNS): 3.15 µM | GI50 (SNB-75 CNS): 1.18 µM | TGI (SNB-75 CNS): 4.31 µM | GI50 (SN12C renal): 1.53 µM | TGI (SN12C renal): 3.56 µM | GI50 (U251 CNS): 1.44 µM | TGI (U251 CNS): 3.04 µM | GI50 (SK-MEL-28 melanoma): 1.77 µM | TGI (SK-MEL-28 melanoma): 3.68 µM | GI50 (HL-60(TB) leukemia): 3.41 µM | TGI (HL-60(TB) leukemia): 8.17 µM | GI50 (UACC-62 melanoma): 1.17 µM | TGI (UACC-62 melanoma): 2.62 µM | GI50 (BT-549 breast): 1.7 µM | TGI (BT-549 breast): 4.28 µM | GI50 (COLO 205 colon): 1.64 µM | TGI (COLO 205 colon): 3.2 µM | GI50 (SK-MEL-2 melanoma): 1.97 µM | TGI (SK-MEL-2 melanoma): 3.8 µM | GI50 (K-562 leukemia): 2.65 µM | TGI (K-562 leukemia): > 100 µM | GI50 (NCI-H460 lung): 2.07 µM | TGI (NCI-H460 lung): 4.74 µM | GI50 (OVCAR-4 ovarian): 1.74 µM | TGI (OVCAR-4 ovarian): 9.12 µM | GI50 (CCRF-CEM leukemia): 3.01 µM | TGI (CCRF-CEM leukemia): > 100 µM | GI50 (DU-145 prostate): 2.22 µM | TGI (DU-145 prostate): 7.84 µM | GI50 (NCI-H522 lung): 1.1 µM | TGI (NCI-H522 lung): 3.17 µM | GI50 (LOX IMVI melanoma): 1.51 µM | TGI (LOX IMVI melanoma): 2.91 µM | GI50 (OVCAR-5 ovarian): 1.7 µM | TGI (OVCAR-5 ovarian): 4.1 µM | GI50 (PC-3 prostate): 1.75 µM | TGI (PC-3 prostate): 4.8 µM | GI50 (SK-MEL-5 melanoma): 1.48 µM | TGI (SK-MEL-5 melanoma): 2.82 µM | GI50 (786-0 renal): 1.74 µM | TGI (786-0 renal): 3.98 µM | GI50 (RPMI-8226 leukemia): 2.16 µM | TGI (RPMI-8226 leukemia): 6.22 µM | GI50 (A549 NSCLC): 1.68 µM | TGI (A549 NSCLC): 3.81 µM | GI50 (NCI-H226 lung): 1.77 µM | TGI (NCI-H226 lung): 5.37 µM
